Test results reported in paper PMC5565192, “Larrea tridentata: A novel source for anti-parasitic agents active against Entamoeba histolytica, Giardia lamblia and Naegleria fowleri” (PLoS Neglected Tropical Diseases, 2017).
Like-named read-outs stand apart in the source and are kept apart here.

Key:
[1] = tested on: E. histolytica HM1: IMSS trophozoites; assay: Parasite assay, CellTiter-Glo EC50 dose response, E. histolytica trophozoites; assay type: cell-based, Entamoeba histolytica; conditions: for EC50: 48 h
Experimental: (§1) Trophozoites of E. histolytica HM1: IMSS and G. lamblia WB strains were axenically maintained in TYI-S-33 medium supplemented with penicillin (100 U/ml), streptomycin (100 μg/ml). Trophozoites of N. fowleri strain KUL were axenically cultured in Nelson’s medium supplemented with 10% FBS at 37°C [45]. All experiments were performed using trophozoites harvested during the logarithmic phase of growth. Four solvent partitioned fractions of an aqueous methanolic extract of L. tridentata and compounds 1–9 were screened for activity against E. histolytica, G. lamblia, and N. fowleri. For primary screening, the positive control for E. histolytica and G. lamblia was 5 μg/mL of metronidazole (Sigma-Aldrich) and 46 μg/mL of amphotericin B for N. fowleri (Sigma-Aldrich). Test samples were diluted to 10 mg/mL of extracts, HPLC fractions, and pure compounds in DMSO. Finally, 0.5 μL of diluted sample was transferred to white, solid bottom tissue culture 96-well plates (E&K Scientific) followed by addition of 99.5 μL trophozoites (5,000 E. histolytica and G. lamblia, and 10,000 N. fowleri) in TYI-S-33 medium or Nelson’s medium. The final concentration for test compounds was 50 μg/mL and 0.5% DMSO, which was the negative control and compound vehicle that we have shown has no effect the growth rate of trophozoites. Assay plates were incubated for 48 h at 37°C. E. histolytica and G. lamblia plates were kept in the GasPak EZ Anaerobe Gas Generating Pouch System (VWR) to maintain anaerobic condition throughout the incubation period. Screening was performed in duplicate using the CellTiter-Glo assay (Promega) and luminescence was measured using an EnVision plate reader (PerkinElmer).
(§2) The antiparasitic activity of 1–6 and 9 were confirmed by EC50 dose response experiments, using the CellTiter-Glo assay, conducted in triplicate over a concentration range from 5-to-700 μM against trophozoites (Table 3). Miltefosine and metronidazole, current drugs for the treatment of PAM and amebiasis and giardiasis were also tested in triplicate as positive controls for EC50 determination (Table 3). Dose response curves including standard deviation (SD) calculation were processed using GraphPad Prism software 5.0. Percent inhibition relative to maximum and minimum reference signal controls was calculated using the formula: % Inhibition = [(mean of Maximum Signal Reference Control—Experimental Value)/(mean of Maximum Signal Reference Control—mean of Minimum Signal Reference Control)] × 100.

[2] = tested on: G. lamblia WB trophozoites; assay: Parasite assay, CellTiter-Glo EC50 dose response, G. lamblia trophozoites; assay type: cell-based, Giardia lamblia; conditions: for loss of activity compared to 3, G. lamblia: SAR comparison with compound 3
Experimental: as §1, §2

[3] = tested on: N. fowleri strain KUL trophozoites; assay: Parasite assay, CellTiter-Glo EC50 dose response, N. fowleri trophozoites; assay type: cell-based, Naegleria fowleri
Experimental: as §1, §2

[4] = tested on: HUVEC-TERT2 cell line; assay: HUVEC cell cytotoxicity (CellTiter-Glo, 48 h); assay type: cell-based, human; conditions: for fold less toxic to human cells compared to N. fowleri: HUVEC EC50 versus N. fowleri EC50, P<0.0001; for EC50: Homo sapiens, HUVEC, 48 h, CellTiter-Glo, read-out: EC50 inhibition of HUVEC cell viability
Experimental: The HUVEC-TERT2 cell line was purchased from Evercyte GmbH (Vienna, Austria) and cultured and maintained in endothelial cell basal medium (Lonza) as described previously. Briefly, cells were seeded into a white 384-well solid bottom plate (Nunc, ThermoFisher) at a density of 1000 cells/well in 39 μL of media using a Janus liquid handler (PerkinElmer). Serial dilutions using 1 μL of compound 1 and 2 at varying concentrations were dispensed into each well in triplicate. After 48 h incubation, 40 μL of CellTiter-Glo reagent (Promega) was added into each well. The contents were mixed for 2 min on a microplate shaker to induce cell lysis and further incubated at room temperature for 10 min to stabilize the luminescent signal. Luminescence was measured with an EnVision plate reader (PerkinElmer) and %inhibition calculations were performed using the following formula for single-point normalization: %Inhibition = (1-Raw Sample Value/Mean of DMSO Signal Reference Value) × 100. Dose response curves including EC50 calculations were processed using GraphPad Prism software.

[5] = tested on: N. fowleri cysteine protease; assay: Cysteine protease activity assay in N. fowleri crude lysate (Z-Phe-Arg-AMC); assay type: biochemical, Naegleria fowleri; conditions: at 1.875 μM, total crude lysate of N. fowleri
Experimental: To prepare the cell lysate, N. fowleri trophozoites were removed from the culture flask surface by incubating in an ice bath for 10 min, centrifuged at 300 g for 10 min, and washed twice with PBS (pH 7.2). The cells were disrupted by four cycles of freeze thawing in PBS [51]. Protein concentration was quantified by the method of Bradford (Bio-Rad). The activity of the cysteine protease present in the crude extract after incubating in presence and absence of different concentrations of compounds 1 and 2 was assayed by the liberation of the fluorescent leaving group, 7-amino-4-methyl coumarin (AMC), from the peptide substrate Z–Phe–Arg–AMC (40 μM) (where Z is benzyloxycarbonyl, R&D Systems). The assay was performed at 25°C in an automated microtiter plate spectrofluorometer (EnVision, PerkinElmer) with excitation wavelength at 355 nm and emission wavelength at 460 nm. Enzyme samples were added to the reactivation buffer (10 mM Tris, 5 mM EDTA, 50 mM NaCl, pH 7.4, 10 mM DTT), and preincubated for 20 min at 37°C prior to the hydrolysis of substrate. The rate of substrate hydrolysis at ambient temperature was determined from the rate of increase of fluorescence, monitored on a continuously recording spectrofluorometer and measured as RFU/min/μg protein.

[6] = tested on: E. histolytica, G. lamblia, and N. fowleri trophozoites; assay: Antiparasitic activity, statements for all three pathogens together (CellTiter-Glo); assay type: cell-based; conditions: for antiparasitic activity against the three pathogens (in words): E. histolytica, N. fowleri trophozoites
Experimental: as §1, §2

[7] = trophozoites, 48 h, minimum n = 3
[8] = trophozoites, 48 h, minimum n = 3, read-out: N. fowleri EC50
[9] = Entamoeba histolytica, trophozoites, minimum n = 3, read-out: E. histolytica EC50
[10] = Entamoeba histolytica, trophozoites, minimum n = 3, read-out: E. histolytica pEC50 ± SE (converted)
[11] = Giardia duodenalis, trophozoites, 48 h, minimum n = 3, read-out: G. lamblia EC50
[12] = Giardia duodenalis, trophozoites, 48 h, minimum n = 3, read-out: G. lamblia pEC50 ± SE (converted)
[13] = Naegleria fowleri, 48 h, trophozoites, 48 h, minimum n = 3, read-out: N. fowleri EC50
[14] = Naegleria fowleri, 48 h, trophozoites, 48 h, minimum n = 3, read-out: N. fowleri pEC50 ± SE (converted)
[15] = Entamoeba histolytica, read-out: E. histolytica EC50
[16] = Giardia duodenalis, 48 h, read-out: G. lamblia EC50
[17] = Naegleria fowleri, 48 h, read-out: N. fowleri EC50

| Molecule | EC50 [1, 9] [µM] | EC50 [1, 10] [µM] | EC50 [2, 11] [µM] | EC50 [2, 12] [µM] | EC50 [3, 13] [µM] | EC50 [3, 14] [µM] | antiparasitic activity against the three pathogens (in words) [6] | also measured |
| --- | --- | --- | --- | --- | --- | --- | --- | --- |
| 3-Methoxy-6, 7, 4’-trihydroxyflavonol [Compound 9] | – | – | – | – | – | – | – | EC50 ([1]; trophozoites, minimum n = 3, read-out: E. histolytica EC50): > 166 µM; G. lamblia pEC50 ± SE [2, 7]: 3.8 ± 0.02; EC50 ([2]; trophozoites, 48 h, minimum n = 3, read-out: G. lamblia EC50): 153 µM; N. fowleri pEC50 ± SE [3, 7]: 3.6 ± 0.02; EC50 [3, 8]: 235 µM |
| C[C@H](Cc1ccc(O)c(O)c1)[C@@H](C)Cc1ccc(O)c(O)c1 [Compound 1, nordihydroguairetic acid] | 103 | 100 | 36 | 39.8 | 36 | 39.8 | – | EC50 [3, 8]: 37 µM; fold less toxic to human cells compared to N. fowleri [4]: 2.4 fold; EC50 [4]: 86 µM; inhibition of cysteine protease activity [5]: ~50% |
| COc1cc(C[C@@H](C)[C@@H](C)Cc2ccc(O)c(O)c2)ccc1O [Compound 2, 3’-O-methylnordihydroguairetic acid] | 171 | 158 | 38 | 39.8 | 38 | 39.8 | – | fold less toxic to human cells compared to N. fowleri [4]: 1.6 fold; EC50 [4]: 59 µM; inhibition of cysteine protease activity [5]: ~50% |
| C[C@H]1[C@H](c2ccc(O)cc2)c2cc(O)c(O)cc2C[C@H]1C [Compound 3, Nor-3’-demethoxyisoguaiacin] | 94 | 100 | 49 | 50.1 | 73 | 79.4 | – | – |
| COc1cc([C@@H]2c3cc(O)c(O)cc3C[C@@H](C)[C@H]2C)ccc1O [Compound 4, Nor-isoguaicin] | 83 | 79.4 | 74 | 79.4 | 75 | 79.4 | – | loss of activity compared to 3, G. lamblia [2]: ~ 2 fold; EC50 ([6]; span over E. histolytica, N. fowleri, read-out: EC50 values against all three pathogens): 74 to 83 µM |
| COc1cc2c(cc1O)C[C@@H](C)[C@@H](C)[C@@H]2c1ccc(O)cc1 [Compound 5, 3’-Demethoxyisoguaiacin] | 236 | 251 | 188 | 200 | 155 | 158 | comparatively weak activity | loss of activity compared to 3, E. histolytica ([1]; SAR comparison with compound 3): ~ 3 fold; loss of activity compared to 3, G. lamblia [2]: 4 fold; loss of activity compared to 3, N. fowleri ([3]; SAR comparison with compound 3): ~ 2 fold |
| C[C@H]1[C@H](c2ccc(O)c(O)c2)c2cc(O)c(O)cc2C[C@H]1C [Compound 6, 6,3'-Di-O-demethylisoguaiacin] | 146 | 158 | 96 | 100 | 150 | 158 | comparatively weak activity | – |
| C[C@@H]1[C@@H](C)[C@H](c2ccc(O)c(O)c2)O[C@H]1c1ccc(O)cc1 [Compound 7, 3-hydroxy-4-epi-larreatricin] | – | – | – | – | – | – | no antiparasitic activity | EC50 [1, 15]: > 166 µM; EC50 [2, 16]: > 166 µM; EC50 [3, 17]: > 166 µM |
| C[C@@H]1[C@H](C)[C@H](c2ccc(O)cc2)O[C@H]1c1ccc(O)c(O)c1 [Compound 8, (7R, 7’R)-7, 7’-bis(4’, 3,4-trihydroxyphenyl)-(8R, 8’S)-8, 8’-dimethyltetrahydrofuran] | – | – | – | – | – | – | no antiparasitic activity | EC50 [1, 15]: > 166 µM; EC50 [2, 16]: > 166 µM; EC50 [3, 17]: > 166 µM |
| Cc1ncc([N+](=O)[O-])n1CCO [Metronidazole, reference compound] | 5 | 5.01 | 6.4 | 6.31 | – | – | – | – |
| CCCCCCCCCCCCCCCCOP(=O)([O-])OCC[N+](C)(C)C [Miltefosine, reference compound] | – | – | – | – | 54.5 | 50.1 | – | – |
